The nature of this data set: moisture-sorption isotherms. The data set is classed as physicochemical. As to conditions: in the range from 25 to 75% RH at 25° C.

Structures can show the parent of a compound that is named as a salt.

On to `COC(=O)N[C@H](C(=O)N[C@@H](Cc1ccccc1)[C@@H](O)CN(Cc1ccc(-c2ccccn2)cc1)NC(=O)[C@@H](NC(=O)OC)C(C)(C)C)C(C)(C)C` [Form A, 1-[4-(Pyridin-2-yl)phenyl]-5(S)-2,5-bis{[N-(methoxycarbonyl)-L-tert-leucinyl]amino}-4-(S)-hydroxy-6-phenyl-2-azahexane, Bisulfate salt (Form A)], for which the “moisture-sorption isotherms weight gain” value is “about 0.1%”.

(Values after US8513428B2, “Process for preparing atazanavir bisulfate and novel forms” (Bristol-Meyers Squibb Company, priority 2009, dated 2013).)
